# Laboratory results taken from US9017645B2, “Homoglutamic acid derivatives” (Piramal Imaging SA, priority 2009, dated 2015).
# Test system: H460 tumor bearing mice
# Experiment: Biodistribution in H460 tumor bearing mice
# Format: in vivo, NMRI (nu/nu) mice
# Conditions: for summary: urine: in %; for summary: carcass / summary: organs / summary: recovery: in % (unit assumed)
# Description: Biodistribution in H460 tumor bearing mice. To test the pharmacokinetic properties of (2S)-2-amino-5-[3-[^18F]fluoropropyl]hexanedioic acid, the fluorinated compound was examined in H460 tumor bearing mice. NMRI (nu/nu) mice were inoculated with H460 tumor cells 8 to 10 days before the biodistribution studies. 185 kBq of activity of the fluorinated compound was injected into each mouse. n=3 mice were used at every time point. After injection of the F18-labeled compound, mice were sacrificed at the timepoints indicated. All organs were removed and radioactivity was determined using a γ-counter. […] Clearance of radioactivity takes place via the kidneys, with 67.9% of activity being excreted at 1 h p.i.
# [1] = 1 h p.i., H460 tumor bearing mice
structure (smiles),measurement,setting,value
N[C@@H](CCC(CCC[18F])C(=O)O)C(=O)O (stereo partly drawn) [(2S)-2-amino-5-[3-[^18F]fluoropropyl]hexanedioic acid],activity excreted via the kidneys,[1],67.9%
same,uptake in the tumor,[1],10.29 % injected dose per gram of tumor
same,retention of activity in the tumor,"4 h p.i., H460 tumor bearing mice",5.85 % injected dose per gram of tumor
same,tumor to blood ratio,H460 tumor bearing mice,34.7
same,tumor to muscle ratio,H460 tumor bearing mice,62.6
same,Tumor/Tissue bone,timepoint 0.25 h,18.92
same,Tumor/Tissue brain,timepoint 0.25 h,58.25
same,Tumor/Tissue heart,timepoint 0.25 h,17.61
same,Tumor/Tissue kidney,timepoint 0.25 h,0.60
same,Tumor/Tissue muscle,timepoint 0.25 h,28.44
same,Tumor/Tissue skin,timepoint 0.25 h,3.82
same,biodistribution adrenals,timepoint 0.25 h,1.18 % Dosis/g
same,biodistribution blood,timepoint 0.25 h,1.36 % Dosis/g
same,biodistribution bone,timepoint 0.25 h,0.57 % Dosis/g
same,biodistribution brain,timepoint 0.25 h,0.18 % Dosis/g
same,biodistribution fat,timepoint 0.25 h,0.25 % Dosis/g
same,biodistribution gallbladder,timepoint 0.25 h,1.08 % Dosis/g
same,biodistribution heart,timepoint 0.25 h,0.60 % Dosis/g
same,biodistribution intestine,timepoint 0.25 h,2.34 % Dosis/g
same,biodistribution kidney,timepoint 0.25 h,17.49 % Dosis/g
same,biodistribution lung,timepoint 0.25 h,3.22 % Dosis/g
same,biodistribution muscle,timepoint 0.25 h,0.37 % Dosis/g
same,biodistribution ovaries,timepoint 0.25 h,4.04 % Dosis/g
same,biodistribution pancreas,timepoint 0.25 h,26.85 % Dosis/g
same,biodistribution skin,timepoint 0.25 h,2.82 % Dosis/g
same,biodistribution spleen,timepoint 0.25 h,5.15 % Dosis/g
same,biodistribution stomach,timepoint 0.25 h,10.27 % Dosis/g
same,biodistribution tail,timepoint 0.25 h,8.12 % Dosis/g
same,biodistribution thyroid,timepoint 0.25 h,2.05 % Dosis/g
same,biodistribution tumor,timepoint 0.25 h,10.58 % Dosis/g
same,biodistribution uterus,timepoint 0.25 h,4.37 % Dosis/g
same,summary: urine,timepoint 0.25 h,30.17
same,summary: carcass,timepoint 0.25 h,18.07
same,summary: organs,timepoint 0.25 h,39.99
same,summary: recovery,timepoint 0.25 h,88.24
same,Tumor/Tissue bone,timepoint 0.5 h,15.47
same,Tumor/Tissue brain,timepoint 0.5 h,69.00
same,Tumor/Tissue heart,timepoint 0.5 h,34.35
same,Tumor/Tissue kidney,timepoint 0.5 h,1.43
same,Tumor/Tissue muscle,timepoint 0.5 h,54.98
same,Tumor/Tissue skin,timepoint 0.5 h,3.20
same,biodistribution adrenals,timepoint 0.5 h,0.67 % Dosis/g
same,biodistribution blood,timepoint 0.5 h,0.45 % Dosis/g
same,biodistribution bone,timepoint 0.5 h,0.53 % Dosis/g
same,biodistribution brain,timepoint 0.5 h,0.12 % Dosis/g
same,biodistribution fat,timepoint 0.5 h,0.18 % Dosis/g
same,biodistribution gallbladder,timepoint 0.5 h,0.47 % Dosis/g
same,biodistribution heart,timepoint 0.5 h,0.24 % Dosis/g
same,biodistribution intestine,timepoint 0.5 h,1.96 % Dosis/g
same,biodistribution kidney,timepoint 0.5 h,5.64 % Dosis/g
same,biodistribution lung,timepoint 0.5 h,1.62 % Dosis/g
same,biodistribution muscle,timepoint 0.5 h,0.15 % Dosis/g
same,biodistribution ovaries,timepoint 0.5 h,6.23 % Dosis/g
same,biodistribution pancreas,timepoint 0.5 h,21.26 % Dosis/g
same,biodistribution skin,timepoint 0.5 h,2.51 % Dosis/g
same,biodistribution spleen,timepoint 0.5 h,4.37 % Dosis/g
same,biodistribution stomach,timepoint 0.5 h,7.82 % Dosis/g
same,biodistribution tail,timepoint 0.5 h,5.67 % Dosis/g
same,biodistribution thyroid,timepoint 0.5 h,1.58 % Dosis/g
same,biodistribution tumor,timepoint 0.5 h,8.17 % Dosis/g
same,biodistribution uterus,timepoint 0.5 h,2.63 % Dosis/g
same,summary: faeces,timepoint 0.5 h,0%
same,summary: urine,timepoint 0.5 h,48.69
same,summary: carcass,timepoint 0.5 h,10.51
same,summary: organs,timepoint 0.5 h,32.54
same,summary: recovery,timepoint 0.5 h,91.75
same,Tumor/Tissue bone,timepoint 1.0 h,22.16
same,Tumor/Tissue brain,timepoint 1.0 h,93.25
same,Tumor/Tissue heart,timepoint 1.0 h,57.45
same,Tumor/Tissue kidney,timepoint 1.0 h,3.31
same,Tumor/Tissue muscle,timepoint 1.0 h,62.55
same,Tumor/Tissue skin,timepoint 1.0 h,4.24
same,biodistribution adrenals,timepoint 1.0 h,0.61 % Dosis/g
same,biodistribution blood,timepoint 1.0 h,0.30 % Dosis/g
same,biodistribution bone,timepoint 1.0 h,0.46 % Dosis/g
same,biodistribution brain,timepoint 1.0 h,0.11 % Dosis/g
same,biodistribution fat,timepoint 1.0 h,0.14 % Dosis/g
same,biodistribution gallbladder,timepoint 1.0 h,0.57 % Dosis/g
same,biodistribution heart,timepoint 1.0 h,0.18 % Dosis/g
same,biodistribution intestine,timepoint 1.0 h,1.77 % Dosis/g
same,biodistribution kidney,timepoint 1.0 h,3.10 % Dosis/g
same,biodistribution lung,timepoint 1.0 h,1.43 % Dosis/g
same,biodistribution muscle,timepoint 1.0 h,0.16 % Dosis/g
same,biodistribution ovaries,timepoint 1.0 h,1.86 % Dosis/g
same,biodistribution pancreas,timepoint 1.0 h,16.68 % Dosis/g
same,biodistribution skin,timepoint 1.0 h,2.43 % Dosis/g
same,biodistribution spleen,timepoint 1.0 h,2.87 % Dosis/g
same,biodistribution stomach,timepoint 1.0 h,4.47 % Dosis/g
same,biodistribution tail,timepoint 1.0 h,2.33 % Dosis/g
same,biodistribution thyroid,timepoint 1.0 h,1.57 % Dosis/g
same,biodistribution tumor,timepoint 1.0 h,10.29 % Dosis/g
same,biodistribution uterus,timepoint 1.0 h,2.45 % Dosis/g
same,summary: faeces,timepoint 1.0 h,0%
same,summary: urine,timepoint 1.0 h,67.90
same,summary: carcass,timepoint 1.0 h,9.28
same,summary: organs,timepoint 1.0 h,25.76
same,summary: recovery,timepoint 1.0 h,102.93
same,Tumor/Tissue bone,timepoint 2.0 h,18.25
same,Tumor/Tissue brain,timepoint 2.0 h,87.08
same,Tumor/Tissue heart,timepoint 2.0 h,54.23
same,Tumor/Tissue kidney,timepoint 2.0 h,6.15
same,Tumor/Tissue muscle,timepoint 2.0 h,62.45
same,Tumor/Tissue skin,timepoint 2.0 h,3.59
same,biodistribution adrenals,timepoint 2.0 h,0.52 % Dosis/g
same,biodistribution blood,timepoint 2.0 h,0.15 % Dosis/g
same,biodistribution bone,timepoint 2.0 h,0.40 % Dosis/g
same,biodistribution brain,timepoint 2.0 h,0.08 % Dosis/g
same,biodistribution fat,timepoint 2.0 h,0.07 % Dosis/g
same,biodistribution gallbladder,timepoint 2.0 h,0.48 % Dosis/g
same,biodistribution heart,timepoint 2.0 h,0.13 % Dosis/g
same,biodistribution intestine,timepoint 2.0 h,1.23 % Dosis/g
same,biodistribution kidney,timepoint 2.0 h,1.17 % Dosis/g
same,biodistribution lung,timepoint 2.0 h,1.04 % Dosis/g
same,biodistribution muscle,timepoint 2.0 h,0.11 % Dosis/g
same,biodistribution ovaries,timepoint 2.0 h,1.58 % Dosis/g
same,biodistribution pancreas,timepoint 2.0 h,7.70 % Dosis/g
same,biodistribution skin,timepoint 2.0 h,1.97 % Dosis/g
same,biodistribution stomach,timepoint 2.0 h,3.35 % Dosis/g
same,biodistribution tail,timepoint 2.0 h,1.64 % Dosis/g
same,biodistribution thyroid,timepoint 2.0 h,1.37 % Dosis/g
same,biodistribution tumor,timepoint 2.0 h,6.72 % Dosis/g
same,biodistribution uterus,timepoint 2.0 h,2.72 % Dosis/g
same,summary: faeces,timepoint 2.0 h,0.01%
same,summary: urine,timepoint 2.0 h,68.67
same,summary: carcass,timepoint 2.0 h,9.12
same,summary: organs,timepoint 2.0 h,17.68
same,summary: recovery,timepoint 2.0 h,94.72
same,Tumor/Tissue bone,timepoint 4.0 h,15.04
same,Tumor/Tissue brain,timepoint 4.0 h,83.21
same,Tumor/Tissue heart,timepoint 4.0 h,68.93
same,Tumor/Tissue kidney,timepoint 4.0 h,8.78
same,Tumor/Tissue muscle,timepoint 4.0 h,64.19
same,Tumor/Tissue skin,timepoint 4.0 h,5.40
same,biodistribution adrenals,timepoint 4.0 h,0.61 % Dosis/g
same,biodistribution blood,timepoint 4.0 h,0.10 % Dosis/g
same,biodistribution bone,timepoint 4.0 h,0.39 % Dosis/g
same,biodistribution brain,timepoint 4.0 h,0.08 % Dosis/g
same,biodistribution fat,timepoint 4.0 h,0.06 % Dosis/g
same,biodistribution gallbladder,timepoint 4.0 h,0.70 % Dosis/g
same,biodistribution heart,timepoint 4.0 h,0.08 % Dosis/g
same,biodistribution intestine,timepoint 4.0 h,0.97 % Dosis/g
same,biodistribution kidney,timepoint 4.0 h,0.72 % Dosis/g
same,biodistribution lung,timepoint 4.0 h,0.81 % Dosis/g
same,biodistribution muscle,timepoint 4.0 h,0.09 % Dosis/g
same,biodistribution ovaries,timepoint 4.0 h,2.18 % Dosis/g
same,biodistribution pancreas,timepoint 4.0 h,4.51 % Dosis/g
same,biodistribution skin,timepoint 4.0 h,1.31 % Dosis/g
same,biodistribution stomach,timepoint 4.0 h,1.27 % Dosis/g
same,biodistribution tail,timepoint 4.0 h,3.43 % Dosis/g
same,biodistribution thyroid,timepoint 4.0 h,0.98 % Dosis/g
same,biodistribution tumor,timepoint 4.0 h,5.85 % Dosis/g
same,biodistribution uterus,timepoint 4.0 h,1.41 % Dosis/g
same,summary: faeces,timepoint 4.0 h,2.1%
same,summary: urine,timepoint 4.0 h,77.27
same,summary: carcass,timepoint 4.0 h,4.03
same,summary: organs,timepoint 4.0 h,12.00
same,summary: recovery,timepoint 4.0 h,94.87
